Data published in ChEMBL document CHEMBL5329179, “Inhibitory effect of γ-ray-modified hydroxymethylated baicalins on NO production” (Bioorg Med Chem Lett, 2023).
Converted amounts (≈) assume the structure as drawn. The source made the active and inactive calls. No cut-off for these calls is given here.

What was measured:
Format in all cases: functional, cell-based
DH82 = experiment: Antiinflammatory activity against LPS-stimulated dog DH82 cells assessed as reduction in iNOS mRNA expression level at 20 uM by qRT-PCR analysis; settings: Canis lupus familiaris
[1] = Antiinflammatory activity against LPS-stimulated dog DH82 cells assessed as reduction in NO production; settings: Canis lupus familiaris
RAW264.7 [2] = experiment: Antiinflammatory activity against LPS-stimulated mouse RAW264.7 cells assessed as reduction in NO production
RAW264.7 [3] = experiment: Antiinflammatory activity against LPS-stimulated mouse RAW264.7 cells assessed as reduction in iNOS mRNA expression level at 20 uM by qRT-PCR analysis
RAW264.7 [4] = experiment: Antiinflammatory activity against mouse RAW264.7 cells assessed as reduction in NO production compound photoirradiated using 50 kGy gamma-ray; settings: RAW264.7, light or radiation study

| SMILES | IC50 [1] [µM] | IC50 (RAW264.7 [2]) [µM] | IC50 (RAW264.7 [4]) [µg/mL] | Activity (DH82) | Activity (RAW264.7 [3]) |
| --- | --- | --- | --- | --- | --- |
| O=C1C[C@](CO)(c2ccccc2)Oc2cc(O[C@@H]3O[C@H](C(=O)O)[C@@H](O)[C@H](O)[C@H]3O)c(O)c(O)c21 | 24.9 | 22.7 | – | Active | Active |
| O=C(O)[C@H]1O[C@@H](Oc2cc3oc(-c4ccccc4)cc(=O)c3c(O)c2O)[C@H](O)[C@@H](O)[C@@H]1O [BAICALIN] | > 200 | 157 | 35.2 (≈ 78.9 µM) | Active | Active |
| O=C1C[C@](CO)(c2ccccc2)Oc2cc3c(c(O)c21)OOC3 | > 200 | > 200 | – | – | – |
| O=c1cc(-c2ccccc2)oc2cc(O)c(O)c(O)c12 [BAICALEIN] | 31.2 | 30.4 | – | – | – |
| O=C1C[C@@](CO)(c2ccccc2)Oc2cc(O[C@@H]3O[C@H](C(=O)O)[C@@H](O)[C@H](O)[C@H]3O)c(O)c(O)c21 | 19.1 | 18.9 | – | Active | Active |
| N=C(N)NN [PIMAGEDINE] | 21 | 24.5 | – | – | – |

Further compounds by falling IC50 [1], results first:

| IC50 [1] [µM] | IC50 (RAW264.7 [2]) [µM] | IC50 (RAW264.7 [4]) [µg/mL] | SMILES | Activity (DH82) | Activity (RAW264.7 [3]) |
| --- | --- | --- | --- | --- | --- |
| 57.5 | 68 | – | O=C(O)[C@H]1O[C@@H](Oc2cc3c(c(O)c2O)C(=O)[C@@H](CO)[C@](CO)(c2ccccc2)O3)[C@H](O)[C@@H](O)[C@@H]1O | – | – |
| 50.6 | 48.9 | – | COc1c(O)cc2oc(-c3ccccc3)cc(=O)c2c1O [OROXYLIN A] | – | – |
